{"source": "patent EP0174458A1", "about": "“Use of 4H-1,4 benzothiazines in the prophylaxis and therapy of diseases of the breath ways, inflammations, rheumatisms, thromboembolic diseases, ischemia and infarctus, heart rhythm disorders, arteriosclerosis and dermatosis, therapeutic agents for this purpose and reactive compounds which are …” (BAYER AG, priority 1984, dated 1986)", "key": {"5-Lipoxygenase": {"biological_target": "T1, 5-Lipoxygenase (Homo sapiens, UniProt P09917)", "T1 sequence (P09917 1-674)": "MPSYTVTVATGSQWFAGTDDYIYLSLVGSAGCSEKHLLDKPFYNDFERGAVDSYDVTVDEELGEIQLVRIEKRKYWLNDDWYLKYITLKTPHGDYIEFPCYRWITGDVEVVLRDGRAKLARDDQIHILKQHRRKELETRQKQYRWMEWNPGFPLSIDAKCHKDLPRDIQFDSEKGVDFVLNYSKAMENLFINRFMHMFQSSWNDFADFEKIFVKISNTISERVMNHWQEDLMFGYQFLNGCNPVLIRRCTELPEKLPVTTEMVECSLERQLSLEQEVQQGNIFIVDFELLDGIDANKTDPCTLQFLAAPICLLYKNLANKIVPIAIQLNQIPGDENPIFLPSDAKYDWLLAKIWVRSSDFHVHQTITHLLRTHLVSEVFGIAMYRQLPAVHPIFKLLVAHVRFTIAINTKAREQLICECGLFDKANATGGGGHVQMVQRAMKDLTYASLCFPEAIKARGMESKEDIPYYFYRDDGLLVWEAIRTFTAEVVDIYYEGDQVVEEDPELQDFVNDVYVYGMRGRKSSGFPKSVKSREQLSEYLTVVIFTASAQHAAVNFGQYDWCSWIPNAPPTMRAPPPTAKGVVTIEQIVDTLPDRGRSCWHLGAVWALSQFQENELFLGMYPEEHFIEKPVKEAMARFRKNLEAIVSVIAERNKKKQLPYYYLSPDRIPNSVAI", "assay": "cell-based", "text": "Die Hemmung der Freisetzung von 5-HETE und Leukotrien B4 aus den Leukozyten stellt ein Maß für den lipoxygenasehemmenden Effekt der erfindungsgemäßen Verbindungen dar.\nDer Test mit den Humanleukozyten wurde nach Borgeat und Samuelsson (J. Biol. Chem. 254, 2643, 1979 und Proc. Natl. Acad. Sci. USA, 76, 2148, 1979) durchgeführt.\nDie im vorliegenden Beispiel verwendeten Human PMN-Leukozyten (w95 %) wurden aus heparinisiertem Vollblut durch eine Dextran-Sedimentation und anschließende Dichtegradiententrennung (Ficoll-Paque) gewonnen (vgl. A. Boyum, Scand. J. Immunol., 5, Suppl 5, 9, 1976).\n2 x 10^7 Zellen/ml wurden in Ca2+-haltigem Dulbecco-Phosphat-Puffer suspendiert und in Anwesenheit bzw. Abwesenheit von Lipoxygenasehemmer mit dem Calcium-Ionophor A 23187 stimuliert.\nNach 15 Minuten wurden die Lipoxygenaseprodukte aus dem angesäuerten Inkubationsmedium extrahiert und mittels HPLC getrennt. Die Hochdruckflüssigkeitschromatographie wurde auf Lichrosorb RP-18(5 µm)-Säulen durchgeführt. Das Laufmittel war Methanol/Wasser/Eisessig 69/ 31/0.01. Die Flußrate betrug 1 ml/min. Leukotrien B4 wurde bei 280 nm, die HETE-Derivate bei 232 nm mittels der UV-Absorption bestimmt."}, "[1]": {"system": "durch Arachidonsäure induzierten Thromboembolie", "assay": "Protection against arachidonic acid induced thromboembolism", "assay_type": "in vivo", "conditions": "100 mg/kg p.o., Kaninchen, 1,5 mg/kg Na-arachidonat", "description": "In diesem Modell wirken Substanzen, die mit der Prostaglandin- und Thromboxanbiosynthese interferieren. Kaninchen werden 1,5 mg/kg Na-arachidonat in eine marginale Ohrvene injiziert. Die Tiere sterben innerhalb von Minuten, vermutlich aufgrund vasospastischer Cyclooxygenase- und Lipoxygenaseprodukte sowie embolisierender Plättchenthromben. Vorbehandlung mit den erfindungsgemäßen Verbindungen schützt die Tiere, so daß diese überleben. Literatur: Silver, M.J. et al., Science 183, 1085, 1974 Seuter, F., Busse, W.D., Agents and Actions, Suppl. 4, 175, 1979."}, "Prostacyclin (PGI2)": {"system": "Prostacyclin (PGI2)", "assay": "Prostacyclin stimulation in aortic rings ex vivo", "conditions": "30 mg/kg p.o., Ratten", "description": "Aortenringe von mit Prüfsubstanzen vorbehandelten Ratten werden 10 Minuten bei 37°C in Trispuffer (pH 7,8) inkubiert. Das sich bildende Prostacyclin wird nach Umwandlung zu dem stabilen 6-Keto-PGF radioimmunologisch bestimmt. Literatur: Mc Intyre, D.E., Salzman, E.W., Thrombos. Haemostas. 46, 19, 1981. Seuter, F. et al., 6th International Symposium on Atherosclerosis, Abstr. 270, Berlin 1982."}}, "data": [{"smiles": "CC(Cc1ccc(O)c(O)c1)C(C)Cc1ccc(O)c(O)c1", "note": "(stereo not shown) [NDGA, Nordihydroguaretsäure]", "values": [{"measurement": "inhibition at 0.5 µg/mL", "setting": "5-Lipoxygenase; 0.25 h, read-out: Hemmung", "result": "~50", "unit": "%"}]}, {"smiles": "CC(C(=O)O)c1ccc2oc(-c3ccc(Cl)cc3)nc2c1", "note": "(stereo not shown) [Benoxaprofen]", "values": [{"measurement": "IC50", "setting": "5-Lipoxygenase", "result": "33.1 to 166", "unit": "µM"}]}, {"smiles": "O=C1CCCC2=C1Sc1ccccc1N2", "note": "[Herstellungs-beispiel 16]", "values": [{"measurement": "Überlebensrate %", "setting": "[1]", "result": "66,6%"}]}, {"smiles": "CSCCOC(=O)C1=C(C)Nc2ccccc2S1", "note": "[Herstellungsbeispiel 7]", "values": [{"measurement": "Fähigkeit von Aortenringen Prostacyclin zu synthetisieren", "setting": "Prostacyclin (PGI2)", "result": "erhöht"}]}]}
